From PMC4672351, “Drug-Drug Interaction Potentials of Tyrosine Kinase Inhibitors via Inhibition of UDP-Glucuronosyltransferases” (Scientific Reports, 2015)

What was measured:
UGT1A4 = target: T1, UGT1A4 (Homo sapiens, UniProt P22310); test: Inhibition of TFP glucuronidation by recombinant UGT1A4; conditions: for activity at 30 min, 100 µM: human
T1 sequence (P22310 29-534): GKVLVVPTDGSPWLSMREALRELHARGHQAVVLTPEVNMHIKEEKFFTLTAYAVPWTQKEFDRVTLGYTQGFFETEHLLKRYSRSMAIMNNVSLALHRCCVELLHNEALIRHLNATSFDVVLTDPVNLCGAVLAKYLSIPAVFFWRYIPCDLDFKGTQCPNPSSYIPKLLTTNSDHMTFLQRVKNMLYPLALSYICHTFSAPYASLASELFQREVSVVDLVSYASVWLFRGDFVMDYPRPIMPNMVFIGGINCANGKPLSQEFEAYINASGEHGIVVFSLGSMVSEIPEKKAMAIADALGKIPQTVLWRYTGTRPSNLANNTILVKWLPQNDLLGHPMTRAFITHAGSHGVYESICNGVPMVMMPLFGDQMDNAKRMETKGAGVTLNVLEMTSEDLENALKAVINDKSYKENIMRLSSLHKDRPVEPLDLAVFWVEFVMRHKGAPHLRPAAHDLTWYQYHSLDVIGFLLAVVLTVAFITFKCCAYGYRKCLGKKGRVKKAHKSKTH

UGT1A1 = target: T2, UGT1A1 (Homo sapiens, UniProt P22309); test: Inhibition of 4-MU glucuronidation by recombinant UGT1A1; conditions: for activity at 120 min, 100 µM: human, recombinant UGT1A1, pH 7.4, probe 4-MU
T2 sequence (P22309 26-533): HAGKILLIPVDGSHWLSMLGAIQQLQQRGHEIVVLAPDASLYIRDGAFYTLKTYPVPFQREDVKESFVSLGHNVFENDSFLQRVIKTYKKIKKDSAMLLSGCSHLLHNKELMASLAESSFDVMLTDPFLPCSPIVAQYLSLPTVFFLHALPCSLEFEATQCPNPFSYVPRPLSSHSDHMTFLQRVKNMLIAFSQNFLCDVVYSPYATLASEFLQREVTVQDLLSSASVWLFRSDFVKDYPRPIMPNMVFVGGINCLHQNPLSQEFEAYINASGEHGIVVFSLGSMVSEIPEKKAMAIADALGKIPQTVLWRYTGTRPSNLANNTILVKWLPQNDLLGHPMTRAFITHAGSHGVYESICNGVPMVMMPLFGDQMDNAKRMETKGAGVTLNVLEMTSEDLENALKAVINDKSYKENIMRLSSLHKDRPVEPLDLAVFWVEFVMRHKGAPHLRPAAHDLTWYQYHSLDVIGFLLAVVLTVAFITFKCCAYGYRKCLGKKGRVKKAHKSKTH

UGT2B7 = target: T3, UGT2B7 (Homo sapiens, UniProt P16662); test: Inhibition of 4-MU glucuronidation by recombinant UGT2B7; conditions: recombinant UGT2B7, pH 7.4, probe 4-MU
T3 sequence (P16662 24-529): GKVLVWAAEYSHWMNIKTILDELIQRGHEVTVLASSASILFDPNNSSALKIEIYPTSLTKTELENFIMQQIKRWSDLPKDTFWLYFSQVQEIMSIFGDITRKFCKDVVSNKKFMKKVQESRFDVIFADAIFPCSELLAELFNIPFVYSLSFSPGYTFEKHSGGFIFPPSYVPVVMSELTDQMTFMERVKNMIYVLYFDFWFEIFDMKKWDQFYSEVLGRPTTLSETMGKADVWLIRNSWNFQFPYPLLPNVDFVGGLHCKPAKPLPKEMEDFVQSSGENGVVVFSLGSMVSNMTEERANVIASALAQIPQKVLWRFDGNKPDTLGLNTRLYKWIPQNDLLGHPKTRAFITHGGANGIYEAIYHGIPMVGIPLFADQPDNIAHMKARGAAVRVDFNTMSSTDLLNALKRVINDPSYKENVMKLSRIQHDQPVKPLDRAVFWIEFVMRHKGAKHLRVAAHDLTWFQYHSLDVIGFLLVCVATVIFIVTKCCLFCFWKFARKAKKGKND

UGT1A10 = target: T4, UGT1A10 (Homo sapiens, UniProt Q9HAW8); test: Inhibition of 4-MU glucuronidation by recombinant UGT1A10; conditions: recombinant UGT1A10, pH 7.4, probe 4-MU
T4 sequence (Q9HAW8 26-530): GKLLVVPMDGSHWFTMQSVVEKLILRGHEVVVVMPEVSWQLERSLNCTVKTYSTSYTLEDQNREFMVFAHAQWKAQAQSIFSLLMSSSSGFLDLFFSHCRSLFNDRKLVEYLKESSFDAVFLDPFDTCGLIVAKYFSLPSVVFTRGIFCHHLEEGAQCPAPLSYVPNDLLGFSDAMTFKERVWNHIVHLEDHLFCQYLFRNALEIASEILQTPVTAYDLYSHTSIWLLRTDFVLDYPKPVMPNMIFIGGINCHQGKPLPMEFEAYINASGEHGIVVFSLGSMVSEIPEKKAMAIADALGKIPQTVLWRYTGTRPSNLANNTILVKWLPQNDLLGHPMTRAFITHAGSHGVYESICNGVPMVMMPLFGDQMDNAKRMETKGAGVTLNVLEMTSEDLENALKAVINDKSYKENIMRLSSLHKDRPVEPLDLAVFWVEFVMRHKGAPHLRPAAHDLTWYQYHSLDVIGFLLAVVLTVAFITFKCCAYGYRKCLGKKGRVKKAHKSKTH

UGT2B17 = target: T5, UGT2B17 (Homo sapiens, UniProt O75795); test: Inhibition of 4-MU glucuronidation by recombinant UGT2B17; conditions: recombinant UGT2B17, pH 7.4, probe 4-MU
T5 sequence (O75795 24-530): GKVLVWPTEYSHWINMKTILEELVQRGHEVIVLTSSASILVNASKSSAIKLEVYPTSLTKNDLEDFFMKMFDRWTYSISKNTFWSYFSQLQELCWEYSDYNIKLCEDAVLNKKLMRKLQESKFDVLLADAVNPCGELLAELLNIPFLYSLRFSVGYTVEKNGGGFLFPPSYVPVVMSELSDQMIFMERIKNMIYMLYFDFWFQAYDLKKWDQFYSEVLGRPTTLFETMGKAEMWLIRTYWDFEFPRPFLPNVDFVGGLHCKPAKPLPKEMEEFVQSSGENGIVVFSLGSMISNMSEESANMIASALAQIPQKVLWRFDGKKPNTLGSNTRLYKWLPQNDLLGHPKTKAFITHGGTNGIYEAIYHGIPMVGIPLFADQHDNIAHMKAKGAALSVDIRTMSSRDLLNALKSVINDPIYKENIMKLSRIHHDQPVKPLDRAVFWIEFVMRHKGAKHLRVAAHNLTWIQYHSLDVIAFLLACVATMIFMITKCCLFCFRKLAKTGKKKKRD

[1] = recombinant UGT1A4, pH 7.4, probe TFP (trifluoperazine)

Compound | IC50 (UGT1A4) [µM] | activity at 30 min, 100 µM (UGT1A4; pH 7.4) [%] | activity at 120 min, 100 µM (UGT1A1) [%] | activity at 120 min, 100 µM (UGT2B7) [%] | activity at 120 min, 100 µM (UGT1A10) [%] | activity at 120 min, 100 µM (UGT2B17) [%] | Ki (UGT1A4) [µM] | inhibition type, UGT1A4 (UGT1A4; TFP substrate) | activity at 30 min, 100 µM (UGT1A4; [1]) [%] | inhibition type, UGT1A1 (UGT1A1; 4-MU substrate)
CNC(=O)c1ccccc1Sc1ccc2c(/C=C/c3ccccn3)n[nH]c2c1 [Axitinib, axitinib] | 14.2 ± 3.2 | 14.9 ± 1.8 | 56.7 ± 3.4 | 55.9 ± 9.7 | 55.5 ± 2.7 | 55.9 ± 0.3 |  |  |  | 
CS(=O)(=O)CCNCc1ccc(-c2ccc3ncnc(Nc4ccc(OCc5cccc(F)c5)c(Cl)c4)c3c2)o1 [Lapatinib, lapatinib] | 3.8 ± 0.7 |  | 30.8 ± 11 | 90.5 ± 1 | 73.6 ± 4.8 | 94.8 ± 5.7 | 36.4 ± 5 | mixed | 40.7 ± 1.9 | competitive
COc1cc2c(Nc3ccc(Br)cc3F)ncnc2cc1OCC1CCN(C)CC1 [Vandetanib, vandetanib] |  |  | 48.9 ± 4.9 | 49.8 ± 3.7 | 49 ± 0.4 | 69.7 ± 3.1 |  |  | 62.8 | 
